Assay results from patent publication US11524045B2, “Peptides for dry eye disease” (ALLYSTA PHARMACEUTICALS, INC., priority 2017, dated 2022).
“Also recorded” adds a separate entry of the source.

What was measured:
Type in all cases: in vivo, C57BL/6 mice
[1] = tested on: desiccating stress-induced dry eye (experimental dry eye; EDE); assay: Tear film break-up time (TBUT) in mouse model of desiccating stress-induced dry eye; settings: EDE mice, 5% Lifitegrast or 0.1% SEQ ID NO:1, 2 μL eye drops three times a day, five and 10-day endpoints, vs untreated dry eye (vehicle)
Description: (§1) The following Methods were used to evaluate the efficacy, anti-inflammatory activity and the therapeutic potential of a peptide inhibitor of trans-endothelial migration peptide compared with 5% Lifitegrast in a mouse model of desiccating stress-induced dry eye (experimental dry eye; EDE).
(§2) Desiccating stress was induced in six to eight-week-old female C57BL/6 mice by subcutaneous injection of 0.5 mg/0.2 mL scopolamine hydrobromide (Sigma-Aldrich, St. Louis, Mo.) three times a day ([…] given at 4.5 hr. intervals) with exposure to an air draft and 30% ambient humidity), which was maintained throughout the dosing period. During these experiments, the animals' behavior, food, and water intake were not restricted. Treatment was terminated and testing was conducted at endpoints of either five or ten days.
Each treatment group comprised 5 animals (n=10 eyes/group) randomly assigned. The groups were treated topically as follows: • 1. Untreated (Normal) control mice that were not exposed to desiccating stress or treated topically • 2. EDE mice treated with balanced salt solution (BSS, vehicle, Alcon, Fort Worth, Tex.) • 3. EDE mice treated with 5% (wt) Lifitegrast (Shire Plc) • 4. […]
All treatment groups received 2 μL eye drops three times a day. The mice in each treatment group: EDE treated with BSS, EDE treated with 5% Lifitegrast, and EDE treated with 0.1% SEQ ID NO:1 were dosed/treated three times/day with 2 uL eye drops of each treatment, respectively (except Normal group). […]
After three blinks, tear film break-up time (BUT) was recorded in seconds using slit lamp biomicroscopy (BQ-900; Haag-Streit, Bern, Switzerland) under cobalt blue light. […]
Tear Film Break-up: This experiment evaluated the anti-inflammatory activity and efficacy of the peptide inhibitor of trans-endothelial migration peptide in ameliorating Desiccation-induced Dry Eye (DED). Eyes were evaluated for time for dry spots to appear on the corneal surface of the eye after blinking. […] Subjects with normal tear quantity but an unstable tear film can explain dry eye symptoms. […]

[2] = tested on: desiccating stress-induced dry eye (experimental dry eye; EDE); assay: Corneal fluorescein staining in mouse model of desiccating stress-induced dry eye; settings: EDE mice; 5% Lifitegrast or 0.1% SEQ ID NO:1, 2 μL eye drops three times a day; five and ten days; vs untreated dry eyes
Description: as §1, §2
Each treatment group comprised 5 animals (n=10 eyes/group) randomly assigned. […]
Ninety seconds after the fluorescein drops were added to measure TBUT, punctate staining on the corneal surface was evaluated in a masked fashion. Each cornea was divided into four quadrants that were scored individually. Corneal fluorescein staining severity score was calculated using a 4-point scale: 0=absent; 1=slightly punctate staining <30 spots; 2=punctate staining >30 spots, but not diffuse; 3=severe diffuse staining but no positive plaque; and 4=positive fluorescein plaque. […]

[3] = tested on: CD4+ and CCR5+ T cells from the conjunctiva; assay: Flow cytometry of activated T cells from the conjunctiva in murine dry eye model; settings: EDE mice; 0.1% SEQ ID NO:1 eye drops three times a day; after 10 days; normal range 15% to 22%, normal control 18.86%
Description: as §1, §2
Each treatment group comprised 5 animals (n=10 eyes/group) randomly assigned. The groups were treated topically as follows: • 1. […]
Flow cytometry was performed for quantitation of CD4+ and CCR5+ T cells from the conjunctiva as previously described (Yoon K C, Heo H, Kang I S, et al. Cornea (2008) 27: 454-460). […]
The number of CD4+ and CCR5+ T cells was counted by a FACSCalibur cytometer with CellQuest software (BD Biosciences).
Eye conjunctiva was evaluated for the number of Activated T cells present in the conjunctiva for each group in the murine Dry Eye study. […]

Row | Molecule | tear film break-up time [1] | tear film break-up time ([1]; listed as peptide inhibitor of trans-endothelial migration peptide) | corneal fluorescein staining grade (corneal disruptions) [2] | percentage of Activated T Cells within the conjunctiva [3] [%]
1 | H-Ser-Val-Thr-Glu-Gln-Gly-Ala-Glu-Leu-Ser-Asn-Glu-Glu-Arg-NH2 (H-SVTEQGAELSNEER-NH2) [SEQ ID NO:1] | noticeably improved tear film times at both endpoints | noticeably improved tear film times at both intervals | improved corneal disruptions | 21.67
2 | CS(=O)(=O)c1cccc(C[C@H](NC(=O)c2c(Cl)cc3c(c2Cl)CCN(C(=O)c2ccc4ccoc4c2)C3)C(=O)O)c1 [Lifitegrast, reference compound] | can ameliorate induced dry eye; also recorded: can ameliorate DED |  | improved corneal disruptions | 
